From patent US7285557B2, “Pyrimidinones as melanin concentrating hormone receptor 1” (SmithKline Beecham P.L.C., priority 2001, dated 2007) come the findings set out here.

The target in the assay is T1, human melanin-concentrating hormone one receptor (Homo sapiens, UniProt Q99705).
T1 construct: expressed in transfected cells; host or cells: CHO (CHO-K1) cells stably expressing an elkgal4-luc+ reporter gene
In words: Functional antagonist assay of MCHR1 (elkgal4-luc+ luciferase reporter gene in CHO cells, inhibition of MCH EC80 response). In kind it is cell-based. The note with it: MCH1R-elkgal4-luc+ CHO cells, luciferase readout, read-out: MCHR1 pIC50 (converted).

T1 sequence (Q99705 whole entry, the tested form may be a part): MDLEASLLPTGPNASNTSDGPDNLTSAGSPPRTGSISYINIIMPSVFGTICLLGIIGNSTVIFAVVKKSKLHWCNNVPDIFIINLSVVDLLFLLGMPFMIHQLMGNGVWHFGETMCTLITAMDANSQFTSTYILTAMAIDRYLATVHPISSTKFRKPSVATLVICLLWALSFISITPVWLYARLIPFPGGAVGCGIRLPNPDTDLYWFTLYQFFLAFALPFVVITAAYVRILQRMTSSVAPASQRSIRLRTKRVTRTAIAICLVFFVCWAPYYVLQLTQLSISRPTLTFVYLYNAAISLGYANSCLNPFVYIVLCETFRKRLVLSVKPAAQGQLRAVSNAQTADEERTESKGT
Description: Chinese hamster ovary (CHO-K1) cells were obtained from the American Type Culture Collection (Rockville, Md.).
CHO cells, stably expressing an elkgal4-luc^+ reporter gene (host) were transfected by electroporation with the human melanin-concentrating hormone one receptor. A stable clone was selected using G418 for functional antagonist assays. MCH1R-elkgal4-luc^+ CHO cells were propagated in complete medium (DMEM/F12, 5% FBS, 2 mM I-glutamine) in T225 flasks. Forty-eight hours prior to assay, cells were harvested with 2 mL of 0.05% trypsin, washed with complete medium and plated at a concentration of 10,000 cells/well in complete medium in black 96-well plates. Eighteen hours prior to the assay, the medium was removed from the cells by aspiration and replaced with 90 μl/well of serum-free DMEM/F12. […] Plates were sealed and subjected to dark adaptation at room temperature for 10 minutes before luciferase activity was quantitated on a TopCount™ microplate scintillation counter (Packard) using 3 seconds/well count time. The ability of the antagonist to inhibit the MCH EC80 response was quantified by non-linear regression analysis using a curve-fitting program based in Microsoft ExCel. Specificity of the MCHR1 response was determined using the same protocol by measuring the ability of said antagonists to inhibit an EC80 thrombin response (endogenous) in the host cells.

For `COc1cc(-n2cnc3cc(-c4ccccc4)ccc3c2=O)ccc1OCCN1CCCCC1` [Example H1, 3-{3-methoxy-4-[2-(1-piperidinyl)ethoxy]phenyl}-7-phenyl-4(3H)-quinazolinone], the IC50 was 79.4 nM.

As to `COc1cc(-n2cnc3cc(-c4ccc(C(F)(F)F)cc4)ccc3c2=O)ccc1OCCN1CCCC1` [Example J1, 3-{3-methoxy-4-[2-(1-pyrrolidinyl)ethoxy]phenyl}-7-[4-(trifluoromethyl)phenyl]-4(3H)-quinazolinone], the IC50 was 63.1 nM.
